No end group written: not given here.
What was measured:
apple reference gene = assay: Detached leaf assay, Ct of apple reference gene; assay type: in vivo; settings: detached apple leaves treated with 28P-2
Text: Water was used as a control.

[1] = test system: Erwinia amylovora (ATCC 49946); assay: Minimum inhibitory concentration, serial dilutions of peptide; assay type: cell-based; settings: for activity against Erwinia amylovora (MIC assay): Erwinia amylovora ATCC 49946, serial dilutions
Xanthomonas perforans = assay: Minimum inhibitory concentration assay; assay type: cell-based; settings: causes spot in tomato
[2] = test system: Xanthomonas euvesicatoria; assay: Minimum inhibitory concentration assay; assay type: cell-based; settings: causes spot in tomato
Pseudomonas syringae = assay: Minimum inhibitory concentration assay; assay type: cell-based; settings: causes speck in tomato
Ralstonia solanaeceum = assay type: cell-based; settings: causes bacterial wilt in tomato

KRIVQRIKDFLRGPGRKRIVQRIKDFLR [28P-2]
level (Ct) of apple reference gene upon treatment (apple reference gene): remained unchanged

KEIVRRIEKFLRGPGRKRIVERIEKFLR [28P-8]
activity against Erwinia amylovora (MIC assay) [1]: active

KLIKLIKKILKKGPGRKLIKLIKKILKK [28P-4]
activity against Erwinia amylovora (MIC assay) [1]: active

KVLSRVHAALKSIFDLGPGRKVLSRVHAALKSIFDL [36P]
toxicity to Erwinia amylovora by MIC, compared with 28P-2 ([1]; 36P relative to 28P-2, FIG. 5): significantly more toxic
activity against Erwinia amylovora (MIC assay) [1]: significant activity
activity against Xanthomonas perforans (Xanthomonas perforans): significant activity
activity against Xanthomonas euvesicatoria [2]: significant activity
activity against Pseudomonas syringae (Pseudomonas syringae): significant activity
activity against Ralstonia solanaeceum (Ralstonia solanaeceum): significant activity

Reference: patent US20230147468A1, “RECOMBINANT PEPTIDE TO TREAT FIRE BLIGHT” (INNATE IMMUNITY LLC, priority 2020, published 2023)
